According to PubChem BioAssay (NCI):
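Cultured in 96-well plates, cells were exposed to test compound for 48 hours across five concentrations. GI50: concentration for 50% inhibition of growth. Definition used: TGI = concentration required for complete inhibition of growth.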 Where a SMILES comes first, the peptide text is derived from it. [ ]: non-standard residue; d: D form. The star is where a group is joined. hSer = N[CH](CCO)C(=O)O; Boc = CC(C)(C)OC(=O)*

Columns and labels:
Assay in all cases: NCI anticancer screen, dose series, 48 h
SF-295 CNS = system: SF-295 CNS
NCI-H23 lung = system: NCI-H23 lung
M14 melanoma = system: M14 melanoma
SK-MEL-2 melanoma = system: SK-MEL-2 melanoma
U251 CNS = system: U251 CNS
HOP-92 NSCLC = system: HOP-92 NSCLC
TK-10 renal = system: TK-10 renal
PC-3 prostate = system: PC-3 prostate
NCI-H226 lung = system: NCI-H226 lung

| SMILES | TGI (SF-295 CNS) [µM] | TGI (NCI-H23 lung) [µM] | TGI (M14 melanoma) [µM] | TGI (SK-MEL-2 melanoma) [µM] | TGI (U251 CNS) [µM] | TGI (HOP-92 NSCLC) [µM] | TGI (TK-10 renal) [µM] | TGI (PC-3 prostate) [µM] | TGI (NCI-H226 lung) [µM] | GI50 (SF-295 CNS) [µM] | GI50 (NCI-H23 lung) [µM] | GI50 (TK-10 renal) [µM] | GI50 (PC-3 prostate) [µM] | GI50 (NCI-H226 lung) [µM] | GI50 (SK-MEL-2 melanoma) [µM] | GI50 (U251 CNS) [µM] | GI50 (HOP-92 NSCLC) [µM] |
| --- | --- | --- | --- | --- | --- | --- | --- | --- | --- | --- | --- | --- | --- | --- | --- | --- | --- |
| NCCC1(N)CCNCC1 | > 100 | > 100 | > 100 | > 100 | > 100 | > 100 | > 100 | > 100 | > 100 | – | – | – | – | – | – | – | – |
| CCOC(=O)NNC(=O)NCCNC(=O)NNC(=O)OCC | – | > 100 | > 100 | > 100 | > 100 | – | > 100 | > 100 | > 100 | – | – | – | – | – | – | – | – |
| COc1ccc(C2SCC(=O)N2N=C2NC(=O)CC(=O)N2)cc1 (stereo unspecified) | > 100 | > 100 | > 100 | > 100 | > 100 | > 100 | > 100 | > 100 | > 100 | – | – | – | – | – | – | – | – |
| C[N+]1(C)CC=C(N2CCOCC2)CC1 | > 10 | > 10 | > 10 | > 10 | > 10 | – | > 10 | > 10 | > 10 | – | – | – | – | – | – | – | – |
| NC1=CN(CCCO)C2=N/C(=C\c3ccco3)C(=O)N12 | > 100 | > 100 | > 100 | > 100 | > 100 | > 100 | > 100 | > 100 | > 100 | – | – | – | – | – | – | – | – |
| CSc1n[nH]c(N)c1C(=O)Nc1ccc(Cl)cc1 | – | > 100 | > 100 | > 100 | > 100 | – | > 100 | > 100 | 76.5 | – | – | – | – | – | – | – | – |
| CC(C)(C)C1CCC2c3c([nH]c4ccccc34)C3C(=O)N(c4cc(Br)cc(Br)c4)C(=O)C3C2C1 (stereo unspecified) | – | 63.3 | > 100 | 47.5 | 30.3 | 8.82 | 59.2 | 33.2 | 75.6 | – | – | – | – | – | – | – | – |
| CCOC(=O)c1nc2c3c(ncn2n1)Oc1c(c(-c2ccccc2)nn1-c1ccccc1)C3c1ccc(OC)c(OC)c1 (stereo unspecified) | > 100 | > 100 | > 100 | > 100 | > 100 | > 100 | > 100 | > 100 | – | – | – | – | – | – | – | – | – |
| COc1cc2c(cc1OC)C(=O)N(c1ccc(O)cc1)C2 | > 100 | > 100 | > 100 | > 100 | > 100 | > 100 | > 100 | > 100 | > 100 | – | – | – | – | – | – | – | – |
| COc1ccc(-n2sc3ncc(-c4ccccc4)cc3c2=O)cc1 | > 100 | 53.3 | > 100 | > 100 | > 100 | > 100 | > 100 | > 100 | > 100 | – | – | – | – | – | – | – | – |
| Nc1c(Br)cc(-c2cc(Br)c(N)c(Br)c2)cc1Br | > 100 | > 100 | > 100 | – | – | > 100 | > 100 | > 100 | > 100 | – | – | – | – | – | – | – | – |
| COc1ccc(CN2C(=O)CCC/C=C\[C@H]2CI)cc1 | 26.3 | 28.7 | 22.6 | 23 | 26.5 | 25.3 | 25 | 20.7 | 25.5 | – | – | – | – | – | – | – | – |
| COc1ccc(C(=O)C2CC3(CCC2(O)c2ccc(OC)cc2)CC(=O)Nc2ccccc2C3=O)cc1 (stereo unspecified) | > 100 | > 100 | > 100 | > 100 | > 100 | > 100 | > 100 | > 100 | > 100 | – | – | – | – | – | – | – | – |
| COc1ccc2c(O)c3[n+](cc2c1OC)CCc1cc2c(cc1-3)OCO2 | > 100 | > 100 | > 100 | > 100 | > 100 | > 100 | > 100 | > 100 | > 100 | – | – | – | – | – | – | – | – |
| COc1ccc(C[C@@H]2CN(C(=O)c3ccccc3)[C@H](Cc3ccc(O)cc3)CN2C(=O)c2ccccc2)cc1Br | > 100 | > 100 | > 100 | > 100 | – | > 100 | > 100 | > 100 | > 100 | – | – | – | – | – | – | – | – |
| COCCC(NC(=O)C(CC(C)C)NC(=O)OC(C)(C)C)C(N)=O (stereo not drawn) (Boc-Leu-[hSer](Me)-NH2; configuration not given here) | > 100 | – | > 100 | > 100 | > 100 | > 100 | > 100 | > 100 | > 100 | – | – | – | – | – | – | – | – |
| COc1c2nc(CCl)n(C)c(=O)c2c(OC)c2c(=O)n(C)c(CCl)nc12 | 5.16 | 3.4 | – | – | 3.29 | > 100 | 1.76 | 2.68 | 13.7 | – | – | – | – | – | – | – | – |
| O=c1c2cc([N+](=O)[O-])ccc2n2n1Cc1ccccc1CC2 | > 100 | > 100 | > 100 | > 100 | > 100 | – | > 100 | > 100 | > 100 | – | – | – | – | – | – | – | – |
| ClCCN(CCCl)Cc1ccc(Nc2ccnc3cc(Cl)ccc23)cc1 | 6.98 | 4.52 | – | – | – | – | 6.22 | 5.71 | 3.78 | 2.08 | 1.33 | 2.42 | 1.57 | 1.41 | – | – | – |
| CN1CC(c2ccccc2)=Cc2c1ccc(N)c2N=N | > 100 | > 100 | > 100 | > 100 | > 100 | – | > 100 | > 100 | > 100 | – | – | – | – | – | – | – | – |
| Cc1c(C)c(C)c(-n2c(=O)n(C)c(=O)n2C(C)(C)C)c(C)c1C | > 100 | > 100 | > 100 | > 100 | > 100 | > 100 | > 100 | > 100 | – | – | – | – | – | – | – | – | – |
| Cc1ncc([N+](=O)[O-])n1CCN(C)CCCCn1ccnc1[N+](=O)[O-] | > 100 | > 100 | > 100 | > 100 | > 100 | – | > 100 | > 100 | > 100 | – | – | – | – | – | – | – | – |
| CO/C(=N\N=C(/C)C(F)(F)F)c1ccncc1 | – | > 100 | > 100 | > 100 | > 100 | > 100 | – | > 100 | > 100 | – | – | – | – | – | – | – | – |
| COC[C@H]1C(=O)NCC(=O)N2NCCC[C@H]2C(=O)N(O)[C@H](C)C(=O)O[C@@H](C(C)C)[C@H](NC(=O)[C@](C)(O)[C@]2(O)CC[C@@H](CC(C)C)[C@H](C)O2)C(=O)N2NCCC[C@@H]2C(=O)N1O | – | 0.0364 | – | 0.0304 | 0.0216 | 0.0377 | 0.0322 | 0.0326 | – | – | < 0.01 | 0.0181 | 0.0174 | – | 0.0152 | < 0.01 | 0.0161 |
